ChEMBL document CHEMBL1139995, “SAR of the arylpiperazine moiety of obeline somatostatin sst1 receptor antagonists” (Bioorg Med Chem Lett, 2007)

Key:
[1] = target: Somatostatin receptor type 2 (Rattus norvegicus, UniProt P30680); experiment: Displacement of [125I]SRIF14 from rat sst2 receptor from rat brain cortex membrane
[2] = target: Somatostatin receptor type 1 (Rattus norvegicus, UniProt P28646); experiment: Displacement of [125I]SRIF14 from rat sst1 receptor from rat brain cortex membrane
Sequence of Somatostatin receptor type 1 (P28646 whole entry): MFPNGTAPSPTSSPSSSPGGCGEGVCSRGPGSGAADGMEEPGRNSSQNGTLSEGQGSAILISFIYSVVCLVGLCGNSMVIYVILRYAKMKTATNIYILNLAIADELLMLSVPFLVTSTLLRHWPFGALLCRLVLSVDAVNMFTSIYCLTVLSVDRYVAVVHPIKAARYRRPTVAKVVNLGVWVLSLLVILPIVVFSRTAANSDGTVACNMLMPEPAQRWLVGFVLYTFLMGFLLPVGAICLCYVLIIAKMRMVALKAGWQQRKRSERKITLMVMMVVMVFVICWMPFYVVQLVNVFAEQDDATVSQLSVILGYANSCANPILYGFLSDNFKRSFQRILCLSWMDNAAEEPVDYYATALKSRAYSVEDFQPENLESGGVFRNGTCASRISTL

[3] = test system: Rattus norvegicus; experiment: Volume of distribution at steady state in rat at 10 mg/kg, po; assay type: ADME, organism-based; set-up: dose 10 mg/kg, route oral; conditions: in vivo
[4] = Oral bioavailability in rat at 10 mg/kg; assay type: ADME, organism-based; conditions: in vivo
[5] = Clearance in rat at 10 mg/kg, po; assay type: ADME, organism-based; set-up: dose 10 mg/kg, route oral; conditions: in vivo
[6] = Ratio of drug level in brain to plasma in rat at 10 to 100 mg/kg, po after 90 mins; assay type: ADME, organism-based; set-up: dose 10-100 mg/kg, route oral; conditions: brain and plasma, read-out: BPR
[7] = species on record: Rattus norvegicus; experiment: Selectivity for rat sst1 receptor over rat sst2 receptor
[8] = Ratio of drug level in brain to plasma in mouse at 10 mg/kg, po after 1 hr; assay type: ADME, organism-based; set-up: dose 10 mg/kg, route oral; conditions: brain and plasma, read-out: BPR

Sequence of Somatostatin receptor type 2 (P30680 whole entry): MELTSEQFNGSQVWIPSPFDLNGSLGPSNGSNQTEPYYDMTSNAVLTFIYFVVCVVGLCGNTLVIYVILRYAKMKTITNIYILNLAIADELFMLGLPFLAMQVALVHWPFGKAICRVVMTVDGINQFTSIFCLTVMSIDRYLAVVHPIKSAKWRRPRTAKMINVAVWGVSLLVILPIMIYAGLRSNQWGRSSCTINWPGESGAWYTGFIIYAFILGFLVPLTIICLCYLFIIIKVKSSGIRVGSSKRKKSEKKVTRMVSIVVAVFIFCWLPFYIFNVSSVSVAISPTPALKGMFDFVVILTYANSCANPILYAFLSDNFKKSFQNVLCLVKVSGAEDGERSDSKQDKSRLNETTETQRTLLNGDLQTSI

SMILES | Kd [1] | Kd [2] | further results
COc1cccc2c1C[C@H]1C[C@@H](C(=O)N3CCN(c4ccccc4F)CC3)CN(C)[C@@H]1C2 | 18.6 µM | 17.8 nM | 
COc1cccc2c1C[C@H]1C[C@@H](C(=O)N3CCN(c4cc5nccnc5cn4)CC3)CN(C)[C@@H]1C2 | 7.08 µM | 355 nM | 
COc1cccc2c1C[C@H]1C[C@@H](C(=O)N3CCN(c4ccc5ccccc5n4)CC3)CN(C)[C@@H]1C2 | 2.09 µM | 27.5 nM | 
COc1cccc2c1C[C@H]1C[C@@H](C(=O)N3CCN(c4ccc(S(N)(=O)=O)cc4)CC3)CN(C)[C@@H]1C2 | 9.12 µM | 589 nM | 
O=[As][As+](=O)[O-] (stereo not given) [ARSENIC TRIOXIDE] | 25.1 µM | 52.5 nM | 
COc1cccc2c1C[C@H]1C[C@@H](C(=O)N3CCN(c4ccc5nccn5n4)CC3)CN(C)[C@@H]1C2 | 20.9 µM | 87.1 nM | 
COc1cccc2c1C[C@H]1C[C@@H](C(=O)N3CCN(c4ccncc4)CC3)CN(C)[C@@H]1C2 | 17.8 µM | 1860 nM | 
CCN(CC)C(=O)c1ccc(N2CCN(C(=O)[C@@H]3C[C@@H]4Cc5c(cccc5OC)C[C@H]4N(C)C3)CC2)cc1 | 20 µM | 1700 nM | 
COc1cccc2c1C[C@H]1C[C@@H](C(=O)N3CCc4c([nH]c5ccccc45)C3)CN(C)[C@@H]1C2 | 6.17 µM | 70.8 nM | 
COc1cccc2c1C[C@H]1C[C@@H](C(=O)N3CCN(c4ccc5nonc5c4)CC3)CN(C)[C@@H]1C2 | 3.47 µM | 1.7 nM | 
COc1cccc2c1C[C@H]1C[C@@H](C(=O)N3CCN(c4ccc([N+](=O)[O-])cc4S(C)(=O)=O)CC3)CN(C)[C@@H]1C2 | 5.25 µM | 1.74 nM | 
COc1cccc2c1C[C@H]1C[C@@H](C(=O)N3CCN(c4cccc(OCc5ccccc5)n4)CC3)CN(C)[C@@H]1C2 | 6.61 µM | 105 nM | 
COc1cccc2c1C[C@H]1C[C@@H](C(=O)N3CCN(c4cccc(C(F)(F)F)c4)CC3)CN(C)[C@@H]1C2 | 13.2 µM | 23.4 nM | 
COc1cccc2c1C[C@H]1C[C@@H](C(=O)N3CCN(c4cccc(F)c4C#N)CC3)CN(C)[C@@H]1C2 | 16.6 µM | 2.82 nM | 
COc1cccc2c1C[C@H]1C[C@@H](C(=O)N3CCN(c4ccc(C(N)=O)cc4)CC3)CN(C)[C@@H]1C2 | 16.6 µM | 1510 nM | 
COc1cccc2c1C[C@H]1C[C@@H](C(=O)N3CCN(c4cccc(=O)n4C)CC3)CN(C)[C@@H]1C2 | 11 µM | 1.82 nM | 
COc1cccc2c1C[C@H]1C[C@@H](C(=O)N3CCN(c4cc(C)nc5ccccc45)CC3)CN(C)[C@@H]1C2 | 5.25 µM | 692 nM | 
COc1cccc2c1C[C@H]1C[C@@H](C(=O)N3CCN(c4cccc5nonc45)CC3)CN(C)[C@@H]1C2 | 3.63 µM | 3.63 nM | 
COc1cccc2c1C[C@H]1C[C@@H](C(=O)N3CCN(c4ccc(C#N)cc4)CC3)CN(C)[C@@H]1C2 | 10 µM | 8.13 nM | 
COc1cccc2c1C[C@H]1C[C@@H](C(=O)N3CCN(c4ccc(C(F)(F)F)cn4)CC3)CN(C)[C@@H]1C2 | 20 µM | 105 nM | 
COc1cccc2c1C[C@H]1C[C@@H](C(=O)N3CCN(c4ccc(C(=O)O)cc4)CC3)CN(C)[C@@H]1C2 | 251 µM | 81300 nM | 
COc1cccc2c1C[C@H]1C[C@@H](C(=O)N3CCN(c4ccc5nccnc5n4)CC3)CN(C)[C@@H]1C2 | 14.1 µM | 5.75 nM | 
COc1cccc2c1C[C@H]1C[C@@H](C(=O)N3CCN(c4ccccc4[N+](=O)[O-])CC3)CN(C)[C@@H]1C2 | 11 µM | 1.29 nM | 
COc1cccc2c1C[C@H]1C[C@@H](C(=O)N3CCN(c4ccc(F)cc4)CC3)CN(C)[C@@H]1C2 | 26.3 µM | 3.39 nM | 
COc1cccc2c1C[C@H]1C[C@@H](C(=O)N3CCN(c4ncccn4)CC3)CN(C)[C@@H]1C2 | 27.5 µM | 468 nM | 
COc1cccc2c1C[C@H]1C[C@@H](C(=O)N3CCN(c4ccc(O)cc4)CC3)CN(C)[C@@H]1C2 | 24.5 µM | 631 nM | 
COc1cccc2c1C[C@H]1C[C@@H](C(=O)N3CCNCC3)CN(C)[C@@H]1C2 | 43.7 µM | 10500 nM | 
COc1cccc2c1C[C@H]1C[C@@H](C(=O)N3CCN(c4ccc(C(C)=O)cc4)CC3)CN(C)[C@@H]1C2 | 8.71 µM | 151 nM | 

SMILES | Kd [1] | Kd [2] | further results
COc1cccc2c1C[C@H]1C[C@@H](C(=O)N3CCN(c4cccc5ccccc45)CC3)CN(C)[C@@H]1C2 | 5.5 µM | 87.1 nM | 
COc1cccc2c1C[C@H]1C[C@@H](C(=O)N3CCN(c4ccc([N+](=O)[O-])cc4)CC3)CN(C)[C@@H]1C2 [OBELIN] | 7.76 µM | 0.708 nM | Vdss [3]: 3 L/kg; bioavailability [4]: 35%; CL/F [5]: 5 mL/min; Kp at 1.5 h [6]: 10; Selectivity ratio [7]: > 10000
COc1cccc2c1C[C@H]1C[C@@H](C(=O)N3CCN(c4cccc5nsnc45)CC3)CN(C)[C@@H]1C2 | 10 µM | 2.75 nM | 
COc1cccc2c1C[C@H]1C[C@@H](C(=O)N3CCN(c4ccc(C(F)(F)F)cc4[N+](=O)[O-])CC3)CN(C)[C@@H]1C2 | 4.9 µM | 110 nM | 
COc1cccc2c1C[C@H]1C[C@@H](C(=O)N3CCN(c4ccccc4C#N)CC3)CN(C)[C@@H]1C2 | 7.41 µM | 2 nM | 
COc1cccc2c1C[C@H]1C[C@@H](C(=O)N3CC=C(c4ccccn4)CC3)CN(C)[C@@H]1C2 | 2.34 µM | 30.2 nM | 
COc1cccc2c1C[C@H]1C[C@@H](C(=O)N3CCCN(c4ccccn4)CC3)CN(C)[C@@H]1C2 | 34.7 µM | 209 nM | 
COc1cccc2c1C[C@H]1C[C@@H](C(=O)N3CC=C(c4ccc(Cl)cc4)CC3)CN(C)[C@@H]1C2 | 2.51 µM | 81.3 nM | 
COc1cccc2c1C[C@H]1C[C@@H](C(=O)N3CCN(c4ccc(F)c(F)c4)CC3)CN(C)[C@@H]1C2 | 16.6 µM | 0.741 nM | Kp at 1 h [8]: 7.5; Selectivity ratio [7]: > 22000
COC(=O)c1ccc(N2CCN(C(=O)[C@@H]3C[C@@H]4Cc5c(cccc5OC)C[C@H]4N(C)C3)CC2)cc1 | 14.8 µM | 162 nM | 
COc1cccc2c1C[C@H]1C[C@@H](C(=O)N3CC=C(c4ncccn4)CC3)CN(C)[C@@H]1C2 | 2.4 µM | 490 nM | 
COc1cccc2c1C[C@H]1C[C@@H](C(=O)N3CCN(c4cccc5ccc(C#N)cc45)CC3)CN(C)[C@@H]1C2 | 5.25 µM | 8.71 nM | 
COc1cccc2c1C[C@H]1C[C@@H](C(=O)N3CCN(c4cc5ccccc5cn4)CC3)CN(C)[C@@H]1C2 | 5.5 µM | 288 nM | 
COc1cccc2c1C[C@H]1C[C@@H](C(=O)N3CCN(Cc4ccccc4)CC3)CN(C)[C@@H]1C2 | 9.12 µM | 457 nM | 
COc1cccc2c1C[C@H]1C[C@@H](C(=O)N3CCCN(c4ccc([N+](=O)[O-])cc4)CC3)CN(C)[C@@H]1C2 | 22.4 µM | 263 nM | 
COc1cccc2c1C[C@H]1C[C@@H](C(=O)N3CCN(c4ccc([N+](=O)[O-])cc4C#N)CC3)CN(C)[C@@H]1C2 | 4.37 µM | 3.24 nM | 
COc1cccc2c1C[C@H]1C[C@@H](C(=O)N3CCN(c4ncccc4OS(=O)(=O)C(F)(F)F)CC3)CN(C)[C@@H]1C2 | 10.5 µM | 562 nM | 
COc1cccc2c1C[C@H]1C[C@@H](C(=O)N3CCN(c4ccc5nsnc5c4)CC3)CN(C)[C@@H]1C2 | 4.27 µM | 10.7 nM | Kp at 1 h [8]: 4.8
COc1cccc2c1C[C@H]1C[C@@H](C(=O)N3CCN(c4ccc5nsnc5n4)CC3)CN(C)[C@@H]1C2 | 5.75 µM | 1.23 nM | Kp at 1 h [8]: 1.8; Selectivity ratio [7]: > 4600
COc1cccc2c1C[C@H]1C[C@@H](C(=O)N3CCN(c4cccc(=O)[nH]4)CC3)CN(C)[C@@H]1C2 | 11.7 µM | 7.59 nM | 
COc1cccc2c1C[C@H]1C[C@@H](C(=O)N3CCN(c4cccc([N+](=O)[O-])c4)CC3)CN(C)[C@@H]1C2 | 6.76 µM | 1.32 nM | 
COc1cccc2c1C[C@H]1C[C@@H](C(=O)N3CCN(c4ccc(C(F)(F)F)cc4)CC3)CN(C)[C@@H]1C2 | 5.13 µM | 275 nM | 
COc1cccc2c1C[C@H]1C[C@@H](C(=O)N3CCN(c4ccc(S(C)(=O)=O)cc4)CC3)CN(C)[C@@H]1C2 | 8.71 µM | 631 nM | 
COc1cccc2c1C[C@H]1C[C@@H](C(=O)N3CCN(c4ccccn4)CC3)CN(C)[C@@H]1C2 | 10.2 µM | 17.4 nM | 
COc1cccc2c1C[C@H]1C[C@@H](C(=O)N3CCN(c4ccc(C#N)cn4)CC3)CN(C)[C@@H]1C2 | 10.2 µM | 3.55 nM | 
COc1cccc2c1C[C@H]1C[C@@H](C(=O)N3CCC(n4c(=O)[nH]c5ccccc54)CC3)CN(C)[C@@H]1C2 | 2.04 µM | 490 nM | 
COc1cccc2c1C[C@H]1C[C@@H](C(=O)N3CCN(c4cccc(F)c4)CC3)CN(C)[C@@H]1C2 | 21.4 µM | 3.31 nM | 
